Our source for the TGI and GI50 values is PubChem BioAssay (NCI).

Some test systems named below: ACHN renal; MOLT-4 leukemia; OVCAR-5 ovarian; EKVX NSCLC; RXF 393 renal; COLO 205 colon; SNB-75 CNS; HT29 colon; SNB-19 CNS.
What all share (experiment): NCI anticancer screen, dose series, 48 h

Each structure is given as a SMILES string.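 Briefly, cells in 96-well plates were exposed to five compound concentrations for 48 h, and endpoints were estimated by linear interpolation. GI50 marks 50% less growth. At the TGI there is no net growth.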

As for `COc1ccc(NC(=O)CC(=O)N/N=C/c2ccc(N(CCC#N)S(C)(=O)=O)cc2)cc1`, the TGI in the experiment with ACHN renal, in the experiment with MOLT-4 leukemia, in the experiment with OVCAR-5 ovarian, in the experiment with EKVX NSCLC, in the experiment with RXF 393 renal and in the experiment on COLO 205 colon was above 100 µM in each case. For the same molecule, the TGI with SNB-75 CNS and in the experiment with HT29 colon was above 100 µM each time.
With `CCOC(=S)SSSC(=S)OCC`, the TGI in the experiment on ACHN renal is 41.9 µM; with MOLT-4 leukemia, 94.7 µM; in the experiment on SNB-19 CNS, above 100 µM; in the experiment on OVCAR-5 ovarian it was 86.6 µM; in the experiment with EKVX NSCLC, above 100 µM; in the experiment with RXF 393 renal, above 100 µM. Further, the TGI in the experiment on COLO 205 colon, in the experiment on SNB-75 CNS and in the experiment on HT29 colon was above 100 µM in each case.
On to `CC1(C)OC2=C(CC1Br)C(=O)C(=O)c1ccccc12` (stereo unspecified), for which the GI50 with ACHN renal was 2.03 µM; with MOLT-4 leukemia it was 2.27 µM; in the experiment with EKVX NSCLC, 1.71 µM; with RXF 393 renal, 1.9 µM; with COLO 205 colon it was 1.89 µM; in the experiment with SNB-75 CNS, 1.82 µM. Besides, the GI50 in the experiment with HT29 colon is 2.4 µM. For the same molecule, the TGI in the experiment on ACHN renal is 3.84 µM; with MOLT-4 leukemia, 5.26 µM; in the experiment on EKVX NSCLC, 3.47 µM; in the experiment on RXF 393 renal, 3.33 µM; with COLO 205 colon, 3.39 µM; with SNB-75 CNS, 3.26 µM. The same molecule yielded a TGI with HT29 colon of 5.25 µM.
As for `Cc1cc(Cl)cc2c1NC(=O)C2(O)CC(=O)c1ccco1` (stereo unspecified), the TGI in the experiment on ACHN renal is above 100 µM; in the experiment with MOLT-4 leukemia it was 81.2 µM; in the experiment with SNB-19 CNS, above 100 µM; in the experiment on OVCAR-5 ovarian, above 100 µM; in the experiment on EKVX NSCLC, above 100 µM; in the experiment with RXF 393 renal, above 100 µM. The TGI in the experiment with COLO 205 colon, in the experiment with SNB-75 CNS and in the experiment with HT29 colon was above 100 µM in each case.
`O=C(CC1C(=O)NN(c2ccc(Br)cc2)C1=O)c1cc(O)ccc1O` (stereo unspecified): the GI50 in the experiment with ACHN renal is 14.8 µM; in the experiment with MOLT-4 leukemia it was above 50 µM; with SNB-19 CNS, 22.7 µM; with OVCAR-5 ovarian, 34.7 µM; in the experiment with EKVX NSCLC it was 27.8 µM; in the experiment on RXF 393 renal, above 50 µM. The GI50 in the experiment on COLO 205 colon was 23.3 µM; with SNB-75 CNS it was 24.8 µM; in the experiment with HT29 colon, 22 µM. Also, the TGI in the experiment on ACHN renal was 49.4 µM; with MOLT-4 leukemia, above 50 µM; in the experiment on SNB-19 CNS, above 50 µM; with OVCAR-5 ovarian it was above 50 µM; with EKVX NSCLC, above 50 µM; in the experiment on RXF 393 renal it was above 50 µM. The TGI with COLO 205 colon, with SNB-75 CNS and in the experiment on HT29 colon was above 50 µM each time.
Turning to `NC1=NC(c2ccccc2)CC(c2cc(Cl)ccc2O)=N1` (stereo unspecified), the TGI in the experiment on ACHN renal was 29.4 µM; with MOLT-4 leukemia, 33.9 µM; with SNB-19 CNS, 30.7 µM; in the experiment with OVCAR-5 ovarian, 34.6 µM; in the experiment on EKVX NSCLC, 29.5 µM; with RXF 393 renal it was 32.9 µM. Also, the TGI in the experiment with COLO 205 colon came to 33.7 µM; with SNB-75 CNS, 31.7 µM; in the experiment with HT29 colon, 32.1 µM.
For `COc1ccc(-c2onc(N)c2-c2cc(OC)c3c(c2)OCO3)cc1`, the GI50 in the experiment on ACHN renal was 6.39 µM; in the experiment with MOLT-4 leukemia, 1.93 µM; in the experiment on SNB-19 CNS, 8.24 µM; with OVCAR-5 ovarian, 6.74 µM; in the experiment with EKVX NSCLC, 6.58 µM; with RXF 393 renal it was 2.71 µM. For the same molecule, the GI50 in the experiment with COLO 205 colon is 2.2 µM; with SNB-75 CNS, 1.75 µM; in the experiment on HT29 colon, 1.65 µM. Further, the TGI was above 100 µM in the experiment with ACHN renal; above 65.5 µM in the experiment on MOLT-4 leukemia; above 100 µM in the experiment with SNB-19 CNS; above 94 µM in the experiment with OVCAR-5 ovarian; above 100 µM in the experiment on EKVX NSCLC; 19 µM in the experiment on RXF 393 renal. Also, the TGI in the experiment with COLO 205 colon came to 6.86 µM; with SNB-75 CNS, 7.32 µM; in the experiment on HT29 colon, 11.9 µM.
For the molecule `O=C(NC12CC3CC(CC(F)(C3)C1)C2)c1ccccc1`, the TGI in the experiment on ACHN renal, in the experiment with MOLT-4 leukemia, in the experiment with SNB-19 CNS, in the experiment on OVCAR-5 ovarian, in the experiment on EKVX NSCLC and in the experiment with RXF 393 renal was above 100 µM each time. For the same molecule, the TGI with COLO 205 colon, with SNB-75 CNS and in the experiment on HT29 colon was above 100 µM each time.
On to `CN(C)CCNC(=O)c1cccc2ccc(-c3ccncc3)nc12`, for which the TGI is 1.37 µM in the experiment with MOLT-4 leukemia; 9.5 µM with SNB-19 CNS; 5.63 µM with OVCAR-5 ovarian; 13.4 µM in the experiment on EKVX NSCLC; 7.85 µM in the experiment on RXF 393 renal; 7.26 µM in the experiment on COLO 205 colon. The TGI in the experiment on SNB-75 CNS stood at 9.9 µM; in the experiment with HT29 colon, 13.8 µM.
Turning to `O=C(Nc1ccc(-c2nc(N3CCOCC3)c3cccn3n2)cc1)Nc1cccnc1`, the GI50 is 0.189 µM in the experiment on ACHN renal; 0.23 µM in the experiment on MOLT-4 leukemia; 0.071 µM with OVCAR-5 ovarian; 0.216 µM in the experiment on EKVX NSCLC; 0.0345 µM in the experiment on RXF 393 renal; 0.0432 µM in the experiment on SNB-75 CNS. In the experiment on HT29 colon, the GI50 was 0.3 µM. The TGI is 3.64 µM in the experiment with ACHN renal; 6.8 µM with MOLT-4 leukemia; above 100 µM in the experiment with OVCAR-5 ovarian; 0.975 µM in the experiment on EKVX NSCLC; 0.359 µM in the experiment on RXF 393 renal; 0.64 µM with SNB-75 CNS. Further, the TGI in the experiment on HT29 colon was above 100 µM.
In the case of `C/C(CC(=O)Nc1cc(C)ccc1C)=N\NC(=O)c1ccncc1`, the TGI with MOLT-4 leukemia, in the experiment on OVCAR-5 ovarian, in the experiment on EKVX NSCLC, in the experiment with RXF 393 renal, in the experiment on COLO 205 colon and in the experiment with SNB-75 CNS was above 100 µM in each case. The TGI in the experiment on HT29 colon was above 100 µM.
`COc1ccc2c(c1)C(=O)c1c-2n(CCCn2ccnc2)c(=O)c2cc([N+](=O)[O-])ccc12`: the GI50 in the experiment with MOLT-4 leukemia was below 0.01 µM; in the experiment with SNB-19 CNS it was below 0.01 µM; in the experiment on OVCAR-5 ovarian it was below 0.0156 µM; with EKVX NSCLC, 0.0646 µM; in the experiment with RXF 393 renal, below 0.0107 µM; in the experiment on COLO 205 colon, 0.0548 µM. Further, the GI50 in the experiment on SNB-75 CNS was below 0.0138 µM; with HT29 colon, below 0.01 µM. Also, the TGI with SNB-19 CNS was above 100 µM; in the experiment on EKVX NSCLC, above 50.9 µM; in the experiment on COLO 205 colon, above 42.8 µM; in the experiment with SNB-75 CNS it was 0.41 µM; in the experiment on HT29 colon it was above 100 µM.
